Measurements as given in patent US8158628B2, “Sulfonylated 1,2,3,4-tetrahydropyrrolo[1,2-a]pyrazine compounds and their use as pharmaceuticals” (Gruenenthal GmbH, priority 2009, dated 2012).

Tests used:
[1] = target: T1, human B1R (Homo sapiens, UniProt P46663); test: FLIPR Ca2+ functional assay, B1R antagonism, human B1R in CHO K1 cells; type: cell-based; details: test substance 10 μM; hB1R CHO K1 cells; agonist Lys-Des-Arg9 bradykinin at EC80; % of maximum achievable inhibition
T1 construct: expressed in transfected cells; host or cells: CHO K1 cells (Chinese hamster ovary), stably transfected
T1 sequence (P46663 1-353): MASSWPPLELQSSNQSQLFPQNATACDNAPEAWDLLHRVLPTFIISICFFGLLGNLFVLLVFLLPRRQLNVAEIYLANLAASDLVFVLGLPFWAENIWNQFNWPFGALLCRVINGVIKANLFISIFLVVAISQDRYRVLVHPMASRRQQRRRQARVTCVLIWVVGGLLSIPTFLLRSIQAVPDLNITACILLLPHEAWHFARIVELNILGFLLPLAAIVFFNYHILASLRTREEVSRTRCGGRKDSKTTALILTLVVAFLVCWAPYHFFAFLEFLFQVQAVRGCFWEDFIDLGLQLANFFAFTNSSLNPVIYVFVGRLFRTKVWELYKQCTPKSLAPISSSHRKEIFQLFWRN
Procedure: The agonistic or antagonistic action of substances on the bradykinin 1 receptor (B1R) of the human and rat species can be quantified with ectopically expressing cell lines (CHO K1 cells) and with the aid of a Ca^2+-sensitive dye (Fluo-4) using a fluorescent imaging plate reader (FLIPR). The value in % activation is based on the Ca^2+ signal after addition of Lys-Des-Arg^9 bradykinin (0.5 nM) or Des-Arg^9 bradykinin (100 nM). Antagonists lead to a suppression of the Ca^2+ influx following administration of the agonist. The % inhibition in comparison with the maximum achievable inhibition is indicated.
1. Functional Investigation on the Bradykinin 1 Receptor (B1R) The agonistic or antagonistic action of substances can be determined on the bradykinin 1 receptor (B1R) of the human and rat species with the following assay. According to this assay, the Ca^2+ inflow through the channel is quantified with the aid of a Ca^2+-sensitive dye (Fluo-4 type, Molecular Probes Europe BV, Leiden, Netherlands) in a fluorescent imaging plate reader (FLIPR, Molecular Devices, Sunnyvale, USA). 2. Method: Chinese hamster ovary cells (CHO K1 cells) which are stably transfected with the human B1R gene (hB1R cells) or the B1R gene of the rat (rB1R cells) are used. For functional investigations these cells are plated-out onto black 96-well plates with a clear base (BD Biosciences, Heidelberg, Germany or Greiner, Frickenhausen, Germany) in a density of 20,000-35,000 cells/well. Overnight the cells are incubated at 37° C. and 5% CO2 in culture medium (hB1R cells: Ham's Nutrient Mixture F12, Gibco Invitrogen GmbH, Karlsruhe, Germany or DMEM, Sigma-Aldrich, Taufkirchen, Germany; rB1R cells: D-MEM/F12, Gibco Invitrogen, Karlsruhe, Germany) with 10 vol. % FBS (foetal bovine serum, Gibco Invitrogen GmbH, Karlsruhe, Germany or PAN Biotech GmbH, Aidenbach, Germany).
On the following day the cells are loaded with 2.13 μM Fluo-4 (Molecular Probes Europe BV, Leiden, Netherlands) in HBSS buffer (Hank's buffered saline solution, Gibco Invitrogen GmbH, Karlsruhe, Germany) with 2.5 mM probenecid (Sigma-Aldrich, Taufkirchen, Germany) and 10 mM HEPES (Sigma-Aldrich, Taufkirchen, Germany) for 60 min at 37° C. The plates are subsequently washed twice with HBSS buffer, and HBSS buffer which additionally contains 0.1% BSA (bovine serum albumin; Sigma-Aldrich, Taufkirchen, Germany), 5.6 mM glucose and 0.05% gelatine (Merck KGaA, Darmstadt, Germany) is added. After a further incubation of 20 minutes at RT, the plates are inserted into the FLIPR for Ca^2+ measurement. Alternatively they are washed with buffer A (15 mM HEPES, 80 mM NaCl, 5 mM KCl, 1.2 mM CaCl2, 0.7 mM MgSO4, 2 g/l glucose, 2.5 mM probenecid) and loaded with buffer A with added 2.5 μM Fluo-4 and 0.025% Pluronic F127 (Sigma-Aldrich, Taufkirchen, Germany). The cells are then washed twice with buffer A and incubated for 30 minutes with buffer A, which additionally contains 0.05% BSA and 0.05% gelatine, at RT and then used for Ca^2+ measurement in the FLIPR. The Ca^2+-dependent fluorescence is measured here before and after addition of substances (λex=488 nm, λem=540 nm). The quantification is performed by measuring the highest fluorescence intensity (FC, fluorescence counts) over time.
The FLIPR protocol comprises two additions of substance. Test substances (10 μM) are first pipetted onto the cells and the Ca^2+ inflow is compared with the control (hB1R: Lys-Des-Arg^9 bradykinin >=50 nM; rB1R: Des-Arg^9 bradykinin 10 μM). The value in % activation based on the Ca^2+ signal after addition of Lys-Des-Arg^9 bradykinin (>=50 nM) or Des-Arg^9 bradykinin (10 μM) is obtained therefrom. After incubation for 10-20 minutes, Lys-Des-Arg^9 bradykinin (hB1R) or Des-Arg^9 bradykinin (rB1R) is applied in the EC80 concentration and the inflow of Ca^2+ is likewise determined.
Antagonists lead to a suppression of the Ca^2+ inflow. The % inhibition in comparison with the maximum achievable inhibition is calculated. […]

[2] = target: T2, B1R of the rat (Rattus norvegicus, UniProt P97583); test: FLIPR Ca2+ functional assay, B1R antagonism, rat B1R in CHO K1 cells; type: cell-based; details: test substance 10 μM; rB1R CHO K1 cells; agonist Des-Arg9 bradykinin at EC80; % of maximum achievable inhibition
T2 construct: expressed in transfected cells; host or cells: CHO K1 cells (Chinese hamster ovary), stably transfected
T2 sequence (P97583 1-337): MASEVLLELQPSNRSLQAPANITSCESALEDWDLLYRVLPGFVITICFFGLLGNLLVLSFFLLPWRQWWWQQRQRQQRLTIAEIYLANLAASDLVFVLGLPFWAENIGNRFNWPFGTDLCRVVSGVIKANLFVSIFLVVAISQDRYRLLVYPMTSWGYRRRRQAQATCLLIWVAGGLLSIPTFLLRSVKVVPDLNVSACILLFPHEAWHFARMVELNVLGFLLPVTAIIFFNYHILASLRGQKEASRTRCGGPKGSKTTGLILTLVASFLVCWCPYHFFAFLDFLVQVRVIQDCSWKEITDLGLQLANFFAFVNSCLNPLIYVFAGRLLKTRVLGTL
Summary of the method: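 IC50 values come from varied compound concentrations applied 10-20 min before an EC80 agonist challenge, with Des-Arg9 bradykinin for rat and Lys-Des-Arg9 bradykinin for human receptor. Ca2+ influx in Fluo-4-loaded CHO K1 transfectants was measured by FLIPR peak fluorescence. Data are % inhibition vs maximum, n=2-3, N>=2.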

Row | Structure (SMILES) | inhibition at 10 µM [1] [%] | inhibition at 10 µM [2] [%]
1 | CC(C)(C)NCc1ccc2c(c1)CCC(NC(=O)CC1c3cccn3CCN1S(=O)(=O)c1cccc(C(F)(F)F)c1)C2 (centres unmarked) [Example 64, N-[6-[(tert-Butylamino)-methyl]-1,2,3,4-tetrahydro-naphthalen-2-yl]-2-[2-[[3-(trifluoromethyl)phenyl]sulfonyl]-1,2,3,4-tetrahydro-pyrrolo[1,2-a]pyrazin-1-yl]-acetamide] | 99.9 | 102
2 | Cc1ccc(S(=O)(=O)N2CCn3cccc3C2CC(=O)NC2CCc3cc(CN4CCCc5ccccc54)ccc3C2)cc1Cl (centres unmarked) [Example 52, 2-[2-[(3-Chloro-4-methyl-phenyl)sulfonyl]-1,2,3,4-tetrahydro-pyrrolo[1,2-a]pyrazin-1-yl]-N-[6-(1,2,3,4-tetrahydro-quinolin-1-yl-methyl)-1,2,3,4-tetrahydro-naphthalen-2-yl]-acetamide] | 96 | 103
3 | Cc1ccc(S(=O)(=O)N2CCn3cccc3C2CC(=O)NC2CCCc3cc(CN4CCCc5ccccc54)ccc32)cc1 (centres unmarked) [Example 129, 2-[2-(p-Tolylsulfonyl)-1,2,3,4-tetrahydro-pyrrolo[1,2-a]pyrazin-1-yl]-N-[6-(1,2,3,4-tetrahydro-quinolin-1-yl-methyl)-1,2,3,4-tetrahydro-naphthalen-1-yl]-acetamide] | 46.1 | 74.7
4 | O=C(CC1c2cccn2CCN1S(=O)(=O)c1cccc(C(F)(F)F)c1)NC1CCc2cc(CN3C4CCCC3CC4)ccc2C1 (centres unmarked) [Example 88, N-[6-(8-Azabicyclo[3.2.1]octan-8-yl-methyl)-1,2,3,4-tetrahydro-naphthalen-2-yl]-2-[2-[[3-(trifluoromethyl)phenyl]sulfonyl]-1,2,3,4-tetrahydro-pyrrolo[1,2-a]pyrazin-1-yl]-acetamide] | 99.9 | 96.5
5 | COc1ccc2cc(S(=O)(=O)N3CCn4cccc4C3CC(=O)NC3CCCc4cc(CN5C6CCCC5CC6)ccc43)ccc2c1 (centres unmarked) [Example 95, N-[6-(8-Azabicyclo[3.2.1]octan-8-yl-methyl)-1,2,3,4-tetrahydro-naphthalen-1-yl]-2-[2-[(6-methoxy-naphthalen-2-yl)sulfonyl]-1,2,3,4-tetrahydro-pyrrolo[1,2-a]pyrazin-1-yl]-acetamide] | 99.7 | 99.8
6 | CNCc1ccc2c(c1)CCC(NC(=O)CC1c3cccn3CCN1S(=O)(=O)c1ccc3cc(OC)ccc3c1)C2 (centres unmarked) [Example 137, 2-[2-[(6-Methoxy-naphthalen-2-yl)sulfonyl]-1,2,3,4-tetrahydro-pyrrolo[1,2-a]pyrazin-1-yl]-N-[6-(methylamino-methyl)-1,2,3,4-tetrahydro-naphthalen-2-yl]-acetamide] | 99.7 | 104
7 | Cc1ccc(S(=O)(=O)N2CCn3cccc3C2CC(=O)NC2CCc3cc(CN4CCCC4)ccc3C2)cc1Cl (centres unmarked) [Example 49, 2-[2-[(3-Chloro-4-methyl-phenyl)sulfonyl]-1,2,3,4-tetrahydro-pyrrolo[1,2-a]pyrazin-1-yl]-N-[6-(pyrrolidin-1-yl-methyl)-1,2,3,4-tetrahydro-naphthalen-2-yl]-acetamide] | 99.9 | 100
8 | Cc1ccc(S(=O)(=O)N2CCn3cccc3C2CC(=O)NC2CCCc3cc(CNC(C)(C)C)ccc32)cc1 (centres unmarked) [Example 72, N-[6-[(tert-Butylamino)-methyl]-1,2,3,4-tetrahydro-naphthalen-1-yl]-2-[2-(p-tolylsulfonyl)-1,2,3,4-tetrahydro-pyrrolo[1,2-a]pyrazin-1-yl]-acetamide] | 99.9 | 101
9 | O=C(CC1c2cccn2CCN1S(=O)(=O)c1cccc(Cl)c1Cl)NC1CCc2cc(CN3CCCCC3)ccc2C1 (centres unmarked) [Example 28, 2-(2-(2,3-dichlorophenylsulfonyl)-1,2,3,4-tetrahydropyrrolo[1,2-a]pyrazin-1-yl)-N-(6-(piperidin-1-ylmethyl)-1,2,3,4-tetrahydronaphthalen-2-yl)acetamide] | 99.5 | 100

Next, values leading:

Row | inhibition at 10 µM [1] [%] | inhibition at 10 µM [2] [%] | Structure (SMILES)
10 | 99.8 | 104 | COc1cc(C)c(S(=O)(=O)N2CCn3cccc3C2COCC(=O)N2CCC3(CC2)CCN(c2ccncc2)C3)c(C)c1 (centres unmarked) [Example 4, 2-((2-(4-Methoxy-2,6-dimethylphenylsulfonyl)-1,2,3,4-tetrahydropyrrolo[1,2-a]pyrazin-1-yl)methoxy)-1-(2-(pyridin-4-yl)-2,8-diazaspiro[4.5]decan-8-yl)ethanone]
11 | 99.8 | 86.2 | Cc1ccc(S(=O)(=O)N2CCn3cccc3C2CC(=O)NC2CCCc3cc(CN4CCN(C)CC4)ccc32)cc1 (centres unmarked) [Example 78, N-[6-[(4-Methyl-piperazin-1-yl)-methyl]-1,2,3,4-tetrahydro-naphthalen-1-yl]-2-[2-(p-tolylsulfonyl)-1,2,3,4-tetrahydro-pyrrolo[1,2-a]pyrazin-1-yl]-acetamide]
12 | 8.84 | 65.5 | COc1cc(C)c(S(=O)(=O)N2CCn3cccc3C2COCC(=O)NC2CCN(c3ccc(C(F)(F)F)cn3)CC2)c(C)c1 (centres unmarked) [Example 32, 2-[[2-[(4-Methoxy-2,6-dimethyl-phenyl)sulfonyl]-1,2,3,4-tetrahydro-pyrrolo[1,2-a]pyrazin-1-yl]-methoxy]-N-[1-[5-(trifluoromethyl)-pyridin-2-yl]-piperidin-4-yl]-acetamide]
13 | 99.9 | 98.9 | COc1cc(C)c(S(=O)(=O)N2CCn3cccc3C2COCC(=O)N2CCN(C3CCN(C)CC3)CC2)c(C)c1 (centres unmarked) [Example 2, 2-((2-(4-Methoxy-2,6-dimethylphenylsulfonyl)-1,2,3,4-tetrahydropyrrolo[1,2-a]pyrazin-1-yl)methoxy)-1-(4-(1-methylpiperidin-4-yl)piperazin-1-yl)ethanone]
